# Reference: PubChem BioAssay AID2033 (NMMLSC, 2009)
# Target: Ras-related protein Rab-2A (Canis lupus familiaris) (UniProt P61105)
# Assay: wildtype Rab2 GTP-binding inhibitors, SAR follow-up, biochemical, multiplex dose response, Bodipy-FL-GTP, flow cytometry (AID 2033)
# Conditions: GST-Rab2 beads, Ki calculated from EC50
# Sequence of Ras-related protein Rab-2A (Canis lupus familiaris) (P61105 whole entry, looked up): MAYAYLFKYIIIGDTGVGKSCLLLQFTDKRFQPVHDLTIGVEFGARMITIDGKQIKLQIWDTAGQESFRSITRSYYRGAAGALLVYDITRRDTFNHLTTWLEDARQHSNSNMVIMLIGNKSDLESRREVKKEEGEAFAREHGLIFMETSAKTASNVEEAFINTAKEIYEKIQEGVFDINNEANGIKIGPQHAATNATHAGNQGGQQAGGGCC
row,SMILES,Ki [nM]
1,Cc1ccc(C)c(N2CCN(C(=O)CCc3nc(-c4ccccc4C)no3)CC2)c1,110
2,COc1ccc(-c2noc(CCC(=O)N3CCN(c4ccccc4C(F)(F)F)CC3)n2)cc1,130
3,Cc1cccc(-c2noc(CCC(=O)N3CCN(c4cc(C)ccc4C)CC3)n2)c1,80
4,COc1ccc(-c2noc(CCC(=O)N3CCN(c4ccccc4F)CC3)n2)cc1,50
5,Cc1ccc(C)c(N2CCN(C(=O)CCc3nc(-c4cccc(Br)c4)no3)CC2)c1,230
6,COc1ccc(-c2noc(CCC(=O)N3CCN(c4cccc(Cl)c4)CC3)n2)cc1,540
7,Cc1ccc(C)c(N2CCN(C(=O)CCc3nc(-c4cccc(Cl)c4)no3)CC2)c1,180
8,COc1ccc(-c2noc(CCC(=O)N3CCC(c4cc(C)ccc4C)CC3)n2)cc1,160
9,COc1ccc(-c2noc(CCC(=O)N3CCN(c4ccccc4Cl)CC3)n2)cc1,150
10,Cc1ccc(C)c(N2CCN(C(=O)CCc3nc(-c4ccccc4Br)no3)CC2)c1,200
11,COc1ccc(-c2noc(CCC(=O)N3CCN(c4ccccc4Br)CC3)n2)cc1,210
12,Cc1ccc(C)c(N2CCN(C(=O)CCc3nc(-c4ccccc4)no3)CC2)c1,50
13,COc1ccc(-c2noc(CCC(=O)N3CCN(c4ccccc4OC)CC3)n2)cc1,80
14,COc1ccc(-c2noc(CCC(=O)N3CCN(c4ccccc4C)CC3)n2)cc1,160
15,Cc1ccc(C)c(N2CCN(C(=O)CCc3nc(-c4ccccc4F)no3)CC2)c1,60
16,COc1ccc(-c2noc(CCC(=O)N3CCN(c4cccc(OC)c4)CC3)n2)cc1,410

# Other lines, results leading:
row,Ki [nM],SMILES
1,20,Cc1ccc(C)c(N2CCN(C(=O)CCc3nc(-c4ccc(F)cc4)no3)CC2)c1
2,160,COc1ccc(-c2cc(CCC(=O)N3CCN(c4cc(C)ccc4C)CC3)on2)cc1
3,160,COc1ccc(-c2ccc(CCC(=O)N3CCN(c4cc(C)ccc4C)CC3)s2)cc1
4,160,COc1ccc(-c2noc(CCC(=O)N3CCN(c4cc(C)ccc4C)CC3)n2)cc1
5,150,COc1ccc(-c2noc(CCC(=O)N3CCN(c4cccc(C)c4C)CC3)n2)cc1
6,1030,COc1ccc(-c2noc(CCCC(=O)N3CCN(c4cc(C)ccc4C)CC3)n2)cc1
7,260,Cc1ccc(-c2noc(CCC(=O)N3CCN(c4cc(C)ccc4C)CC3)n2)cc1
8,330,COc1ccc(-c2ccc(CCC(=O)N3CCN(c4cc(C)ccc4C)CC3)[nH]2)cc1
9,250,COc1cccc(-c2noc(CCC(=O)N3CCN(c4cc(C)ccc4C)CC3)n2)c1
10,110,Cc1ccc(C)c(N2CCN(C(=O)CCc3nc(-c4ccc(Cl)cc4)no3)CC2)c1
11,50,COc1ccc(-c2noc(CCC(=O)N3CCN(c4ccc(C)cc4)CC3)n2)cc1
12,190,Cc1ccc(C)c(N2CCN(C(=O)CCc3nc(-c4ccc(Br)cc4)no3)CC2)c1
13,960,COc1ccc(-c2ccc(CCC(=O)N3CCN(c4cc(C)ccc4C)CC3)o2)cc1
